According to patent publication US20260354380A1, “PYRAZOLO PESTICIDAL COMPOUNDS” (BASF SE, priority 2022, published 2026):

Legend:
Type in all cases: in vivo
[1] = tested on: Aedes aegypti; test: whole plant or invertebrate; conditions: 800 ppm; larvae; 2 days
Procedure, shortened: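 Visual larval mortality was assessed 2 days after treatment (28±1 °C, 80±5% RH). Formulations of compounds or mixtures (75% water/25% DMSO) were applied by micro-atomizer onto diet of 5-15 newly hatched larvae per water-filled well, two replicates per concentration.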

[2] = tested on: Anthonomus grandis; test: Action on Boll Weevil (Anthonomus grandis); conditions: 800 ppm; egg and larval mortality; 5 days
Procedure, shortened: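 Diet in 96-well plates, seeded with 5-10 A. grandis eggs, received a spray of formulated compound (25% DMSO in water) at a range of concentrations, duplicated. Mortality of eggs and larvae was judged by eye after 5 days at about 25±1 °C, 75±5% relative humidity.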

[3] = tested on: Heliothis virescens; test: Action on Tobacco Budworm (Heliothis virescens); conditions: 800 ppm; egg and larval mortality; 5 days
Procedure, shortened: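 Eggs (15-25 per well) on diet were held 5 days at about 28±1 °C, 80±5% RH, then egg and larval mortality was scored by eye. Beforehand the diet had been sprayed with compound dilutions formulated in water/DMSO 75:25 v/v, in two replicates.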

[4] = tested on: Spodoptera eridania; test: Action on Southern Armyworm (Spodoptera eridania), 2nd Instar Larvae; conditions: 300 ppm; 2nd instar larvae; 4 days after treatment
Procedure, shortened: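 2nd-instar Spodoptera eridania larvae (about 10–11 per pot) confined on sprayed, dried Lima bean plants (1st true leaf stage) in sealed bags. Spray solutions: acetone/water 1:1 plus 0.01% surfactant. Held 4 days near 25 °C, 20–40% RH; assessed for mortality and feeding reduction against untreated controls.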

[5] = tested on: Plutella xylostella; test: Action on Diamond Back Moth (Plutella xylostella), microtiter plates, insect diet, eggs; conditions: 800 ppm; egg and larval mortality; 5 days
Experimental: Example B8: Action on Diamond Back Moth (Plutella xylostella)
For evaluating control of diamond back moth (Plutella xylostella) the test unit consisted of 96-well-microtiter plates containing an insect diet and 15-25 P. xylostella eggs. The compounds or mixtures were formulated using a solution containing 75% water and 25% DMSO. Different concentrations of formulated compounds or mixtures were sprayed onto the insect diet at 5 μl, using a custom-built micro atomizer, at two replications. For experimental mixtures in these tests identical volumes of both mixing partners at the desired concentrations respectively, were mixed together. After application, microtiter plates were incubated at 28±1 °C, 80±5% RH for 5 days. Egg and larval mortality was then visually assessed.

| SMILES | mortality in comparison with untreated controls [1] | mortality in comparison with untreated controls [2] | mortality in comparison with untreated controls [3] | mortality in comparison with untreated controls [4] | mortality in comparison with untreated controls [5] |
| --- | --- | --- | --- | --- | --- |
| Cc1ccc(C(C)C)c(N2C(=O)CSC2=NC(=O)Nc2ccc(-n3nc(C)c(NC(=O)c4cc(F)c(F)c(F)c4)c3C)cc2)c1 [Example C-117] | at least 50% | at least 75% | at least 75% | at least 75% | at least 75% |
| Cc1ccc(C(C)C)c(N2C(=O)CSC2=NC(=O)Nc2ccc(-n3nc(C)c(NC(=O)c4ccc(C#N)cc4F)c3C)cc2)c1 [Example C-107] | at least 50% | at least 75% | at least 75% | at least 75% | at least 75% |
| Cc1ccc(C(C)C)c(N2C(=O)CSC2=NC(=O)Nc2ccc(-n3cc(NC(=O)c4ccc([N+](=O)[O-])cc4)c(C)n3)cc2)c1 [Example C-54] | at least 50% | at least 75% | at least 75% | at least 75% | at least 75% |
| CCN(C(=O)c1ccc(Cl)c(Cl)c1)c1c(C)nn(-c2ccc(NC(=O)/N=C3\SCC(=O)N3c3cc(C)ccc3C(C)C)c(Cl)c2)c1C [Example C-103] | at least 50% | at least 75% | at least 75% | at least 75% | at least 75% |
| Cc1ccc(C(C)C)c(N2C(=O)CSC2=NC(=O)Nc2ccc(-n3nc(C)c(NC(=O)c4ccc(F)c(F)c4)c3C)cc2)c1 [Example C-114] | at least 50% | at least 75% | at least 75% | at least 75% | at least 75% |
| Cc1nn(-c2ccc(NC(=O)NC(=S)Nc3ccccc3C(C)C)cc2)cc1NC(=O)c1ccc(OC(F)(F)F)cc1 [Example C-126] | at least 50% | at least 75% | at least 75% | at least 75% | at least 75% |
| Cc1ccc(C(C)C)c(N2C(=O)CSC2=NC(=O)Nc2ccc(-n3nc(C)c(NC(=O)c4ccc(Cl)c(Cl)c4)c3C)cc2)c1 [Example C-115] | at least 50% | at least 75% | at least 75% | at least 75% | at least 75% |
| Cc1ccc(C(C)C)c(N2C(=O)CSC2=NC(=O)Nc2ccc(-n3nc(C)c(NC(=O)c4ccc(Cl)cc4)c3C)cc2)c1 [Example C-111] | at least 50% | at least 75% | at least 75% | at least 75% | at least 75% |
| Cc1ccc(C(C)C)c(N2C(=O)CSC2=NC(=O)Nc2ccc(-n3nc(C)c(NC(=O)c4ccc(Cl)cc4F)c3C)cc2)c1 [Example C-110] | at least 50% | at least 75% | at least 75% | at least 75% | at least 75% |
| Cc1ccc(C(C)C)c(N2C(=O)CSC2=NC(=O)Nc2ccc(-n3nc(C)c(NC(=O)c4ccc(C#N)c(F)c4)c3C)cc2)c1 [Example C-108] | at least 50% | at least 75% | at least 75% | at least 75% | at least 75% |
